Data reported in US20240279201A1, “DUAL WNT SIGNALING PATHWAY INHIBITORS AND AMPK ACTIVATORS FOR TREATMENTS OF DISEASE” (priority 2021, published 2024).

Tests used:
[1] = test system: AMPK; assay: Western blotting of phosphorylated AMPK in HEK293 cells; format: cell-based; settings: 100 nM, 24 h
Experimental: (§1) FIG. 6A-FIG. 6E illustrate the development of Axin stabilizers with dual activities of Wnt inhibition and AMPK activation. […] HEK293 cells were used. B&C: 100 nM compounds, 24 h. FIG. 6D is a table showing the activity profile of YA6060. F=bioavailability; soubility is aqueous solubility.
(§2) A dual-luciferase gene reporter assay was used to test inhibitory activities of new compounds on Wnt signaling. […] Axin is also reported to form a complex with AMPK and its upstream kinase LKB1 (FIG. 12A and FIG. 12B) to facilitate AMPK activation. Therefore, the effects of new compounds on AMPK was examined. […] YA6060 and its analogs had dual activities of potent Wnt signaling inhibition and AMPK activation, which were dependent on the levels of scaffolding protein Axin.

[2] = test system: AMPK; assay: AMPK activation in SW620 cells (immunoblotting); format: cell-based
Experimental: HEK293 cells were stained with anti-axin-1 or DAPI and studied under fluorescence microscopy. FIG. 26B is an image illustrating enhanced AMPK phosphorylation by Axin overexpression (empty pcDNA3 vs. pcDNA3-Axin-1) in HEK293 cells. […] See FIG. 23A-FIG. 23C for Axin knockdown. […] Cells were treated for 24 h.
Treatment of compound YW2049 indicated no effects on total protein levels of AMPK and ACC in SW620 cells.
The effects of FX analogs in Axin stabilization and AMPK activation were further studied by genetic manipulation of Axin. Axin overexpression led to enhanced AMPK activation (FIG. 26A and FIG. 26B). In contrast, it has been reported that knockdown of Axin in cells and in mouse liver impairs AMPK activation. […] This timeline is consistent with the reports that Axin can form a complex with AMPK.

[3] = biological target: β-catenin (Homo sapiens (Human), UniProt P35222); assay: Western blotting of β-catenin in HEK293 cells; format: cell-based; settings: 100 nM, 24 h
Experimental: as §1, §2

[4] = test system: SW480 cells; assay: Mitochondrial function in SW480 cells
[5] = test system: HT29 cells; assay: Viability of HT29 cells; format: cell-based; settings: Homo sapiens, HT-29, read-out: IC50, cell viability
[6] = test system: Wnt signaling in SW480 cells; assay: Luciferase gene reporter (TOPflash) assay in SW480 cells; format: cell-based, human
[7] = test system: SW620 xenograft; assay: SW620 xenograft in nude mice; format: in vivo
[8] = test system: SW480, SW620, and HT29 cells; assay: Colony formation assay; format: cell-based
From the text: FIG. 23A is an image illustrating a colony formation assay. […] The orange circle indicates cells in early apoptosis.

[9] = biological target: Axin 1 (Homo sapiens (Human), UniProt O15169); assay: Western blotting of Axin 1 in HEK293 cells; format: cell-based; settings: 100 nM, 24 h
Experimental: as §1, §2

[10] = physchem; settings: water, aqueous solubility
Experimental: (§3) The ADMET and PK properties of YA6060 was determined.
Determination of physiochemical properties. The profiles of six selected analogs is estimated in silico, and selected Axin stabilizers are evaluated in in vitro assays: the aqueous solubility is determined using a multiscreen solubility filter plate (Millipore, Billerica, MA) coupled with LC-MS/MS, as performed for the already synthesized YA6060 analogs; the cell viability assays on selected analogs is measured using HEK293 cells; the intestinal permeability by determining the transport from the apical to the basolateral (A to B) in Caco-2 monolayers; the metabolic stability by incubating the compounds with mouse microsomes and liver tissue S9 fraction and analyzing by LC-MS/MS.

[11] = biological target: RPS6KA3 (Homo sapiens (Human), UniProt P51812); assay: Off-target kinase panel, RPS6KA3; settings: read-out: inhibition of RPS6KA3
[12] = in vivo; settings: C57/BL6, mouse, in vivo, po
Experimental: as §3
PK/Tox. The four selected compounds from in vitro evaluation above are subjected to PK and toxicity assessment in C57/BL6 mice. […] Compound concentrations is determined by LC/MS/MS. PK analysis is carried out on Phoenix Winnolin using non-compartmental analysis and compartment models. Compound accumulation in major tissues, including liver, kidney, heart, brain and intestine, are quantified. […] For study ii, a half number of mice per group are sacrificed immediately after the 3-week course and the remaining after a 2-week washout period to assess delayed toxicity. In toxicity studies, blood is collected upon euthanasia for liver and renal chemistries and complete blood counts, and major organs harvested and examined macro- and microscopically by veterinarian pathologists. It is expected that an understanding of PK properties, such as bioavailability, AUC, clearance, and toxic effects, such as general tolerance and specific toxicity in the liver, kidney, other major organs, and particularly Wnt-dependent tissues, such as intestine, stomach, and skin is established for these selected compounds.

[13] = test system: Wnt signaling in SW620 cells; assay: Luciferase gene reporter (TOPflash) assay in SW620 cells; format: cell-based; settings: Homo sapiens, SW-620, read-out: IC50, inhibition of Wnt signaling
[14] = Cytotoxicity (CC50) during the luciferase gene reporter assay; format: cell-based; settings: human, HEK293 cells; short treatment duration of the luciferase gene reporter assay
[15] = test system: Wnt/β-Catenin signaling pathway; assay: Wnt signaling luciferase (TOPflash) reporter gene assay; format: cell-based; settings: luciferase reporter gene assay; mean of three independent experiments; read-out: IC50 (nM) to inhibit the Wnt signaling activity
From the text: A dual-luciferase gene reporter assay was used to test inhibitory activities of new compounds on Wnt signaling. […] Therefore, the effects of new compounds on AMPK was examined. […]

[16] = test system: HEK293 cells; assay: Cytotoxicity (CC50) during the luciferase gene reporter assay; format: cell-based; settings: short treatment duration of the luciferase gene reporter assay

Chain of RPS6KA3 (P51812 whole entry, species assumed): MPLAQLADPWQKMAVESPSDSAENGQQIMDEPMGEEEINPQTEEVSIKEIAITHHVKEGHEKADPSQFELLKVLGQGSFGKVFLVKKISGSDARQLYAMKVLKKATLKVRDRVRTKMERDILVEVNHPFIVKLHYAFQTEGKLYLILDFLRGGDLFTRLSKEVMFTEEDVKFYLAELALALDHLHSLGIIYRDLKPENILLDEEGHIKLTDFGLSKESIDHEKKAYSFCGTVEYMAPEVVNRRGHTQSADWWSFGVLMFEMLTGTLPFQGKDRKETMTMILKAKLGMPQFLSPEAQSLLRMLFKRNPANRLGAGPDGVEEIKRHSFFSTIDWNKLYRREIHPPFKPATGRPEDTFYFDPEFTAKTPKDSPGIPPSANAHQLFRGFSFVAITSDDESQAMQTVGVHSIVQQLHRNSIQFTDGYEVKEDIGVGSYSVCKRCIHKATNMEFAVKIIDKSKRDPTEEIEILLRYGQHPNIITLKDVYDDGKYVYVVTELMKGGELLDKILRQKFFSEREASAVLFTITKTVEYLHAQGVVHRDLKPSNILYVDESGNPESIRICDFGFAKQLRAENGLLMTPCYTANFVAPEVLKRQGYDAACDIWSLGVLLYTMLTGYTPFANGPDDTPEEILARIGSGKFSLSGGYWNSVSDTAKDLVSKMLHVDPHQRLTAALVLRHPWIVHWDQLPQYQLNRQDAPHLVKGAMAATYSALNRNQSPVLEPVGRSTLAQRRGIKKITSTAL

protein level of β-catenin [3]	IC50 [5]	IC50 ([6]; Homo sapiens, read-out: IC50, inhibition of Wnt signaling)	level of Axin 1 [9]	solubility [10]	inhibition at 1000 µM [11]	bioavailability [12]	IC50 [13]	Compound	levels of phosphorylated AMPK (p-AMPK) [1]	p-AMPK levels [2]	O2 consumption rate and ATP production [4]	extent of inhibition of Wnt signaling activity in reporter assays [6]	tumor growth and tumor weight ([7]; i.p. each day, dose-dependent)	body weight gain ([7]; mouse, in vivo)	colony formation [8]	CC50 [14]	IC50 [15]	CC50 [16]
decreased	17 µM	1.2 nM	stabilizing	< 10 µg/mL	39%	13%	0.19 nM	Cc1c(C(=O)Nc2ccc3ccccc3n2)cnn1-c1ccccc1Br [YW2065]	significantly increased	increased	reduced O2 consumption rate	could abolish Wnt activity at high concentrations	reduced both tumor growth	not affected	inhibited the colony formation	> 92 µM		
								Cc1ccccc1-n1nnc(C(=O)Nc2ccc3cc(CN4CCNCC4)ccc3n2)c1C [YA10951, 5-Methyl-N-(6-(piperazin-1-ylmethyl)quinolin-2-yl)-1-(o-tolyl)-1H-1,2,3-triazole-4-carboxamide]									4.3 nM	> 92 µM
